{"source": "paper PMC7070898", "about": "(Clinical and Translational Science, 2019)", "origin": "cited, not measured here", "key": {"[1]": {"conditions": "patients receiving acalabrutinib ref 12; cited from earlier work"}, "BTK": {"target": "BTK (Homo sapiens, UniProt Q06187)", "sequence (Q06187 whole entry)": "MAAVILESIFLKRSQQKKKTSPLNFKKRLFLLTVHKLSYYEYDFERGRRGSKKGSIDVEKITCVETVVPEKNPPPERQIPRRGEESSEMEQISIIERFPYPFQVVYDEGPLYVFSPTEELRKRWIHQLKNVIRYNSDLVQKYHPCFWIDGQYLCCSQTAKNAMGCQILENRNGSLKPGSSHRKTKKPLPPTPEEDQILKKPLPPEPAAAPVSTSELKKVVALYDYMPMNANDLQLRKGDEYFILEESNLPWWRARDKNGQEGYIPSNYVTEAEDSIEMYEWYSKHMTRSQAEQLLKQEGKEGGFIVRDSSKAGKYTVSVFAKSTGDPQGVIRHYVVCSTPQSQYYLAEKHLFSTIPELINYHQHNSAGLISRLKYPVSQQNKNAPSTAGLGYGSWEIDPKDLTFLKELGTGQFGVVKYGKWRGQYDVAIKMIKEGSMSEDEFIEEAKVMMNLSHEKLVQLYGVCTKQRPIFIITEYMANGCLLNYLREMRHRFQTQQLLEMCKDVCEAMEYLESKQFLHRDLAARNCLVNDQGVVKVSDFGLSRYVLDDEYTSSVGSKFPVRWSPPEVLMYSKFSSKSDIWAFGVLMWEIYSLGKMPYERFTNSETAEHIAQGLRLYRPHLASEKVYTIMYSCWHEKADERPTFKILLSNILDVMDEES", "conditions": "single dose, cited from earlier work"}}}
{"smiles": "CC#CC(=O)N1CCC[C@H]1c1nc(-c2ccc(C(=O)Nc3ccccn3)cc2)c2c(N)nccn12", "note": "[acalabrutinib]", "values": [{"measurement": "atrial fibrillation/flutter, patients", "setting": "[1]", "value": 3, "unit": "%"}]}
{"smiles": "C=CC(=O)Nc1cccc(Nc2nc(Nc3ccc(OCCOC)cc3)ncc2F)c1", "note": "[CC‐292]", "values": [{"measurement": "BTK occupancy", "setting": "BTK; five of six healthy subjects, ≤ 4 hours after administration ref 21", "value": "> 98", "unit": "%"}, {"measurement": "duration of complete or near‐complete BTK occupancy", "setting": "BTK; healthy subjects ref 21", "value": "8 to 24", "unit": "h"}]}
